For orientation: Kd means the free concentration of one partner at which half of the binding sites on the other are occupied at equilibrium, for simple one-to-one binding. The term inhibition denotes how much of the control response was suppressed.

The values that follow come from PMC9945734 (BMC Medicine, 2023).

One test deals with T1, KLF5^K369Q protein (Homo sapiens, UniProt Q13887, K369Q).
T1 construct: made in house; host or cells: E. coli BL21 DE3
Kind of test: Fluorescence titration (quenching) of KLF5 protein. The following applies: read-out: binding constant Kd. As for the experimental part: (§1) Wild-type or mutant KLF5 protein at 1 μM in 2 mL PBS was measured for fluorescence spectrum using a fluorescence spectrometer (HORIBA, Kyoto, Japan), and the fluorescence spectra were obtained for wavelengths of 300–500 nm. NTZ with various concentration ranges and various increments were used in the analysis, including 0.1–1 μM with an increment of 0.1 μM, 1–5 μM with an increment of 0.5 μM, 5–10 μM with an increment of 1 μM, and 10–30 μM with an increment of 5 μM. The incubation with NTZ was for 5 s at room temperature. Data were processed and fitted to obtain the binding affinities using the Origin software (OriginLab, Northampton, MA, USA), and Kd values were determined by the responses at […] wavelength.

Another test has as its target T2, KLF5^K369R protein (Homo sapiens, UniProt Q13887, K369R).
T2 construct: made in house; host or cells: E. coli BL21 DE3
The experiment in a line: Fluorescence titration (quenching) of KLF5 protein. Particulars: read-out: binding constant Kd. As for the experimental part:
as §1

The subject of a further test is RAW264.7 cells. The experiment in a line: RANKL-induced osteoclast differentiation, TRAP staining. In kind it is cell-based. Particulars: RANKL 50 ng/mL. As for the experimental part:
Three different culture systems were used for the in vitro osteoclast differentiation assay. In the first one, RAW264.7 cells were seeded onto 96-well plates at 1 × 10^3 cells/well and cultured overnight. Cells were then stimulated with recombinant mouse RANKL (Cat #: CR06, Novoprotein, Shanghai, China) at 50 ng/mL in the presence or absence of various concentrations of NTZ (0, 6.25, 12.5, 25 μM). […] Cells were then fixed in 4% paraformaldehyde for 10 min, rinsed with prewarmed deionized water, and stained with tartrate-resistant acid phosphatase (TRAP) using a kit from Sigma-Aldrich (Cat #: A387) to visualize osteoclasts (≥ 3 nuclei/cell). The effect of NTZ on osteoclast differentiation was determined by counting the number of multinucleated cells using the Image J software (Image J 1.48v).

The subject of the next test is MMP9. Kind of test: MMP9 expression by western blotting and qRT-PCR. Particulars: KLF5^K369Q-expressing cells (PC-3-KQ). The format is cell-based, human. How it is done: Total RNA was extracted from cells using the Eastep Super total RNA extraction kit (Cat #: LS1040, Promega, Shanghai, China) and quantified using the NanoDrop One (Thermo Fisher Scientific, Madison, USA). Single-strand cDNA was synthesized from 1 μg of total RNA using the HiScript III All-in-one RT SuperMix kit (Cat #: R333-01, Vazyme, Nanjing, China). For qRT-PCR, the cDNA template was mixed with the SYBR Green reagent in enzyme-free water, and the Qtower3 touch system (Analytik Jena, Jena, Germany) was used for PCR with the following program: initial denaturation at 95°C for 5 min, 40 cycles of 95°C for 30 s, 60°C for 30 s, and 72 °C for 30 s, and a final melting for 15 s. GAPDH was used as an internal control. […].
Cells in 6-well plates were washed with cold PBS and collected in a lysis buffer containing phosphatase and protease inhibitors (Cat #: P1045, Beyotime) to extract proteins. After centrifugation for 10 min at 4°C in a refrigerated centrifuge, the supernatant was collected and mixed with the 4× loading buffer, boiled in a metal heat bath at 100°C for 10 min, and then subjected to 10% SDS-PAGE. Proteins were transferred onto an activated PVDF membrane (0.45 μm pore-size, Cat #: IPVH00010, Millipore, Carrigtwohill, Ireland). […]

For the next test, the system named is PC-3-KQ cells. Kind of test: 3D spheroid invasion assay and screening of FDA-approved drugs. The format is cell-based, human. Particulars: Homo sapiens; for activity at 0.01 µM / activity at 0.1 µM / activity at 1 µM / activity at 10 µM: 72 h, compared to vehicle control, read-out: Invasion rates (%) of each drug’s multiple concentrations. The essentials: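 Cells were clustered into spheroids by centrifugation and grown 3 days, then embedded in matrigel-medium containing drug on day 4 and cultured another 3 days. Drugs were screened at 10 μM first, then at 0–10 μM, in duplicate wells. Invasion area is total area minus core sphere area from phase-contrast images.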

[1] abbreviates: secondary screening of 87 hit compounds (Table S1).
Where [2] appears, read: third screening of 25 hit compounds (Table S2).

Read-outs that look alike come from different tables or passages of the source. Where only a bound is given, the exact number is not on record here.

T1 sequence (Q13887 whole entry K369Q): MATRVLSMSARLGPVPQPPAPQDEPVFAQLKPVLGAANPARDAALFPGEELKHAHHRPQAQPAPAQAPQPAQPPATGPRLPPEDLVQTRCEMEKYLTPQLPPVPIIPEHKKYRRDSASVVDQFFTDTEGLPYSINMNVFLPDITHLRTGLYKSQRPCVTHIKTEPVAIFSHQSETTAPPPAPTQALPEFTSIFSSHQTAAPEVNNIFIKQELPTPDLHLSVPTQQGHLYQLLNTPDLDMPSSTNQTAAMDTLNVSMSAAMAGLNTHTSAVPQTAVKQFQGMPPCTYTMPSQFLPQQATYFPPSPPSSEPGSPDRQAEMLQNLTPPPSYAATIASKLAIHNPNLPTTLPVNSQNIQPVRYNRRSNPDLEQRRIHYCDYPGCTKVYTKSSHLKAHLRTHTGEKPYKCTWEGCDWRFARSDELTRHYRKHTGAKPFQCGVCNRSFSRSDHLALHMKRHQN
T2 sequence (Q13887 whole entry K369R): as the sequence (Q13887 whole entry K369Q) above, with Q369R counted along it

As for `CC(=O)Oc1ccccc1C(=O)Nc1ncc([N+](=O)[O-])s1` [Nitazoxanide], the Kd at KLF5^K369Q protein turned out to be 5.4 µM; at KLF5^K369R protein, 7.3 µM. In addition, the “number of TRAP^+ multinucleated cells” value with RAW264.7 cells (6.25 and 12.5 μM) was “significantly decreased”; with RAW264.7 cells (NTZ 0, 6.25, 12.5, 25 μM), “decreased the number of TRAP^+ multinucleated cells in a dose-dependent manner”. Besides, in the test with MMP9, the “MMP9 expression (protein and mRNA)” value was “decreased MMP9 expression in a dose-dependent manner”. Further, the activity at 0.01 µM with PC-3-KQ cells (0.01 μM (first column so headed), secondary screening of 87 hit compounds (Table S1)) is 79.3%; with PC-3-KQ cells (0.01 μM (first column so headed), third screening of 25 hit compounds (Table S2)), 94.1%; in the test with PC-3-KQ cells (0.01 μM (second column so headed), secondary screening of 87 hit compounds (Table S1)) it was 79.5%; with PC-3-KQ cells (0.01 μM (second column so headed), third screening of 25 hit compounds (Table S2)), 94.3%. Moreover, the activity at 0.1 µM in the test with PC-3-KQ cells (setting [1]) was 45.6%; with PC-3-KQ cells (setting [2]), 44%. Further, the activity at 1 µM with PC-3-KQ cells (setting [1]) came to 4.45%; in the test with PC-3-KQ cells (setting [2]), 6.41%. Further, the activity at 10 µM in the test on PC-3-KQ cells (setting [1]) came to 3.4%; with PC-3-KQ cells (setting [2]), 1.24%. In the test with PC-3-KQ cells (at 0.1 μM, read-out: inhibition of cell invasion), the inhibition at 0.1 µM was more than 50%.
